Values joined by “and” are separate entries in the source; they are usually repeats but may differ in a detail not shown here. Equal entries are not always repeated. Where two headings read alike, the source gives them in different places.
Key:
[1] = Solubility in aqueous media / aqueous buffer solutions; assay type: physicochemical; details: hydrochloride salt, aqueous buffer solutions
[2] = mouse, in vivo
Protocol: (§1) 9 male C57BL/6J mice following administration of a single subcutaneous dose of 4.40 mg/kg. The vehicle for the subcutaneous formulation contained “0.1% sodium metabisulfite solution”.
(§2) Male C57BL/6J mice were purchased from Si Bei Fu Laboratory Animal Technology Co. Ltd (Beijing, China). The animals were about 8 weeks old with body weights of 20-30 g on the dosing date. The animals were housed in a 12-hour light/12-hour dark cycle environment and had free access to food and water. All animals were fasted overnight and fed after 4 hours collection.
(§3) For group 1, plasma samples were collected from dorsal metatarsal vein at each time point after subcutaneous administrations.
(§4) For plasma samples, about 30 μL or 300 μL of blood samples were collected from each animal via dorsal metatarsal vein or heart. These blood samples were placed into the tubes containing K2EDTA. And centrifugation at 3000 g for 10 minutes in a 4° C. centrifuge. The completion time from collection was less than 30 min. The stabilizing agent of ascorbic acid at 200 mg/mL was added in a proportion of 10% in plasma. The plasma samples were stored in a freezer at −75±15° C. prior to analysis. The completion time from collection was less than 60 min.
(§5) For brain and CSF samples, The animals were fully exsanguinated with a rising concentration of CO2 gas prior to CSF and brain collection.
(§6) For CSF collection, incision was made by scissors on the neck of the rats to expose the foramen magnum. A syringe fitted with a venoclysis needle was used to sample the CSF, the tip of the needle was inserted into the membrane of foramen magnum about 1-2 mm, and a negative pressure was applied by pulling a stopcock a small length of the syringe to extract CSF fluids into a tube. The stopcock was further actuated to until a sufficient amount of CSF was collected. There should be no blood in the CSF fluid. A stabilizing agent of ascorbic acid at 200 mg/mL was added in a proportion of 10% in CSF.
(§7) For brain collection. Brain samples were collected at an adopted time point, and washed 3 times with cold saline, then dried with clean gauze and put into the weighed tube, quick frozen in an ice box and kept at −75±15° C. All brain samples were weighted and homogenized with phosphate buffered saline (PBS) by brain weight (g) to PBS volume (mL) ratio 1:3 before analysis. The stabilizing agent of ascorbic acid at 200 mg/mL was added in a proportion of 10% in grain homogenate. The actual concentration was the detected value multiplied by the dilution factor. Brain samples were collected at designed time point, quickly homogenized and kept at −75±15° C.
(§8) Calibration standard working solutions were prepared at concentrations of 2, 5, 10, 20, 50, 100, 500, 1000, 5000 and 10000 ng/mL by serial dilution of the standard stock solution in 50% acetonitrile in water. Quality control working solutions at concentrations of 5, 10, 500 and 8000 ng/mL were prepared by serial dilution of the standard stock solution in 50% acetonitrile in water. These QC samples were prepared on the day of analysis in the same way as calibration standards.
(§9) For plasma and brain samples, 3 μL of each calibration standard working solution (2, 5, 10, 20, 50, 100, 500, 1000, 5000 and 10000 ng/mL) was added to 30 μL of the blank C57BL/6J mouse plasma or brain homogenate (with 10% 200 mg/mL ascorbic acid) to achieve calibration standards of 0.2-1000 ng/mL (0.2, 0.5, 1, 2, 5, 10, 50, 100, 500, 1000 ng/mL) in a total volume of 33 μL. Quality Control (QC) samples at 0.5 ng/mL (low-1), 1 ng/mL (low-2), 50 ng/mL (mid), 800 ng/mL (high) for plasma were prepared independently for those used for the calibration curves. These QC samples were prepared on the day of analysis in the same way as calibration standards.

in vivo [3] = details: male, SD, rat, iv, 0.88 mg/kg
Protocol: (§10) The vehicle for the IV, subcutaneous, PO and IN formulation contained “0.1% sodium metabisulfite solution”.
(§11) Male SD rats were purchased from Si Bei Fu Laboratory Animal Technology Co. Ltd (Beijing, China). The animals were about 8 weeks old with body weights of 200-300 g on the dosing date. The animals were housed in a 12-hour light/12-hour dark cycle environment and had free access to food and water. All animals were fasted overnight and fed after 4 hours collection.
(§12) Plasma samples were collected from jugular vein at each time point after IV, subcutaneous, PO and IN administrations.
(§13) About 200 μL of blood samples were collected from each animal via jugular vein. These blood samples were placed into the tubes containing K2EDTA. And centrifugation at 3000 g for 10 minutes in a 4° C. centrifuge. The completion time from collection was less than 30 min. The stabilizing agent of ascorbic acid at 200 mg/mL was added in a proportion of 10% in plasma. The plasma samples were stored in a freezer at −75±15° C. prior to analysis. The completion time from collection was less than 60 min.
(§14) Calibration standard working solutions were prepared at concentrations of 2, 5, 10, 20, 50, 100, 500, 1000, 5000 and 10000 ng/mL by serial dilution of the standard stock solution in 50% acetonitrile in water. Quality control working solutions at concentrations of 5, 10, 20, 500 and 8000 ng/mL were prepared by serial dilution of the standard stock solution in 50% acetonitrile in water. These QC samples were prepared on the day of analysis in the same way as calibration standards.
(§15) For plasma samples, 2 μL of each calibration standard working solution (2, 5, 10, 20, 50, 100, 500, 1000, 5000 and 10000 ng/mL) was added to 20 μL of the blank SD rat plasma (with 10% 200 mg/mL ascorbic acid) to achieve calibration standards of 0.2-1000 ng/mL (0.2, 0.5, 1, 2, 5, 10, 50, 100, 500, 1000 ng/mL) in a total volume of 22 μL. Quality Control (QC) samples at 0.5 ng/mL (low-1), 1 ng/mL (low-2) and 2 ng/mL (low-3), 50 ng/mL (mid), 800 ng/mL (high) for plasma were prepared independently for those used for the calibration curves. These QC samples were prepared on the day of analysis in the same way as calibration standards. The total volumes of 22 μL of standards, 22 μL of QC samples and 22 μL of unknown samples (20 μL of unknown plasma (with 10% 200 mg/mL ascorbic acid) with 2 μL 50% acetonitrile) were added to 200 μL of acetonitrile containing IS to precipitate proteins. Then the samples were vortexed for 30 sec. After centrifugation at 4° C., 4700 rpm for 30 min, and supernatant was diluted 2 times with water, 10 μL of the diluted supernatant was injected into the LC-MS/MS system for quantitative analysis.
All the samples were processed on ice.
(§16) The LC-MS/MS system consisted of two Shimadzu LC-30AD pumps, a DGU-20A5R degasser, a Rack changer II and LCMS-8060 LC/MS/MS instrument mass spectrometer.
(§17) OD-3R Particle size 3 μm 4.6 mm×150 mm column at room temperature. The mobile phase was composed of A: Water (5 mM Ammonium Acetate); B: Ethanol (5 mM Ammonium Acetate). The flow rate was 0.5 mL/min. The injection volume was 10 μL.
(§18) A multiple reaction monitoring (MRM) method was selected for quantitative analysis. […] The instrument parameters were set as follows: ion spray voltage: 8060; heating gas flow: 10 L/min; interface temperature: 250° C.; DL temperature: 220° C.; heat block temperature: 400° C.; drying gas flow: 10 L/min.
(§19) Data acquisition was performed by Lab Solutions version 5.89 Software (Shimadzu). All concentration data was reported with 3 significant figures. Data statistics were performed using Excel 2010 software.
(§20) The linear trapezoidal algorithm was used for AUC calculation.

[4] = male, SD, rat, in vivo, iv, 0.88 mg/kg, 1 h
Protocol: as §10, §11, §12, §13, §14, §15
All the samples were processed on ice.
as §16, §17, §18, §19, §20

[5] = Pharmacokinetic and brain penetration study, single subcutaneous dose, male C57BL/6J mouse (plasma, CSF, brain); details: in vivo, sc, 0.0367 mg/kg
Protocol: as §1, §2, §3, §4, §5, §6, §7, §8, §9

in vivo [6] = details: male, C57BL/6J, mouse
Protocol: as §1, §2, §3, §4, §5, §6, §7, §8, §9

SMILES: CN1CCc2cccc3c2[C@@H]1Cc1ccc(O)c(O)c1-3.Cl
- solubility [1]: low solubility

SMILES: CN1CCc2cccc3c2[C@H]1Cc1ccc(O)c(O)c1-3
- Tmax ([2]; male, C57BL/6J, sc, 0.0367 mg/kg): 11.7 min
- plasma concentration [2]: BLOQ
- concentration at 2 min (in vivo [3]; mean plasma concentration): 3.75 ng/mL
- concentration at 0.5 h (in vivo [3]; mean plasma concentration): 0.559 ng/mL
- concentration at 1 h (in vivo [3]; mean plasma concentration): 0.232 ng/mL
- concentration at 2 min (in vivo [3]; plasma concentration): 3.85 ng/mL
- concentration at 0.5 h (in vivo [3]; plasma concentration): 0.582 ng/mL
- concentration at 1 h (in vivo [3]; plasma concentration): 0.257 ng/mL
- plasma concentration [4]: 0.207 ng/mL
- Cmax [5]: 7.78 ng/mL
- concentration at […] (in vivo [6]; 0.0367 mg/kg, plasma concentration): 10.1 ng/mL
- concentration at 0.5 h (in vivo [6]; brain concentration, Conc. (ng/g)): 38 ng/g
- concentration at 0.5 h (in vivo [6]; brain concentration, Conc. (ng/mL)): 7.6 ng/mL
- concentration at 0.5 h (in vivo [6]; brain concentration, Mean): 39.6 ng/g
- concentration at […] (in vivo [6]; brain concentration, Mean): 48.4 ng/g
- concentration at 0.5 h (in vivo [6]; plasma concentration): 5.06 ng/mL
- concentration at 1 h (in vivo [6]; plasma concentration): 1.82 ng/mL
- concentration at […] (in vivo [6]; plasma concentration): 7.46 ng/mL and 8.5 ng/mL
- concentration at 0.5 h (in vivo [6]; plasma concentration, Mean): 5.15 ng/mL
- concentration at 1 h (in vivo [6]; plasma concentration, Mean): 1.65 ng/mL
- concentration at […] (in vivo [6]; plasma concentration, Mean): 6.5 ng/mL and 8.16 ng/mL
- AUC(0-t) (in vivo [6]; sc, 0.0367 mg/kg, AUClast): 5.1 ng·h/mL
- AUC(0-inf) (in vivo [6]; sc, 0.0367 mg/kg, AUC∞): 5.99 ng·h/mL
- Cmax (in vivo [6]; sc, 0.0367 mg/kg, Cmax): 8.56 ng/mL
- MRT inf (in vivo [6]; sc, 0.0367 mg/kg, MRTInf): 32.5 min

Source: US20230141988A1, “PHARMACEUTICAL COMPOSITION FOR USE IN THE TREATMENT OF NEUROLOGICAL DISEASES” (Aclipse One Inc., priority 2020, published 2023)
